Experimental data as given in patent US8546611B2 (priority 2008, dated 2013).
Like-named read-outs stand apart in the source and are kept apart here.

Key:
[1] = system: erythroid cells isolated from the bone marrow of laboratory mice males; settings: feed with succinic acid 20 mg/kg body wt., not irradiated, norm 5.0±1.0
Method: The test for genotoxicity was performed on young laboratory mice males (18-20 g; 6 animals in each group). […] The control animals were given water.

Wistar rat males = settings: 1.5 ml of 1% succinic acid perorally 10 min prior; for Eosinophils, 6 h after / Lymphocytes, 6 h after / Number of leukocytes in 1 μl of blood, 6 h after / Segmentated cells, 6 h after: 6 h after immobilization; for Eosinophils, before / Lymphocytes, before / Number of leukocytes in 1 μl of blood, before / Segmentated cells, before: at the moment of immobilization
Method: Examples, illustrating the method invented, are presented below. […] SA is tested on rats endured an immobilization stress; the parameter tested is lymphocytic composition of blood, which is determined before and after stress in a blood smear taken from the caudal vein. […] A detailed description of the testing technique is given in Example 13.
The animals were fixed while lying flat on their back, with their legs secured. […] Blood was taken from the caudal vein: 10 μl for counting blood corpuscles and 20 μl for preparing a smear with its subsequent staining by Romanovsky-Giemsa).
First group: 10 min prior immobilization, the animals were injected (perorally, with the help of a stomach pump) with 1.5 ml of 1% starch solution. […] Blood was taken from the caudal vein at the moment of immobilization and 6 hours later, and stained blood smears were prepared to calculate the leukogram.

[2] = system: patients with cardiac insufficiency; settings: for patients of functional class I, day 30 / patients of functional class II, day 30 / patients of functional class III, day 30 / patients of functional class IV, day 30 / patients of functional class I, day 60 / patients of functional class II, day 60 / patients of functional class III, day 60 / patients of functional class IV, day 60 / patients of functional class I, day 90 / patients of functional class II, day 90 / patients of functional class III, day 90 / patients of functional class IV, day 90: 100 mg twice per day with standard therapy; for patients of functional class I, day 30 / patients of functional class II, day 30 / patients of functional class III, day 30 / patients of functional class IV, day 30: after 30 days; for patients of functional class I, day 60 / patients of functional class II, day 60 / patients of functional class III, day 60 / patients of functional class IV, day 60: after 60 days; for patients of functional class I, day 90 / patients of functional class II, day 90 / patients of functional class III, day 90 / patients of functional class IV, day 90: after 90 days; for patients of functional class I, day 0 / patients of functional class II, day 0 / patients of functional class III, day 0 / patients of functional class IV, day 0: 100 mg twice per day, 3 months, with standard therapy, before treatment
Method: The test for cardiotonic activity of product samples was performed by measuring the dynamics of alteration of the functional class of cardiac failure. The functional class can be determined quite accurately by analyzing the everyday life activities according to a specific activity scale. The authors of this technique suppose that the criteria developed by NYHA (New York Heart Association) cannot provide accurate determination of functional class, since widely used terms, such as “everyday physical activity”, “sub-everyday activity” are not specific. On the basis of multiple tests, in which patients exercised on a treadmill, the authors calculated a scale of metabolic expenses for each kind of life activity (see Goldman L., Hashimoto B., Cook F. et al., Comparative reproducibility and validity of systems for assessing cardiovascular functional class: advantages of a new specific activity scale (1981) Circulation 64 (6):1227-34). This inquiry is designed to be used by medical personnel, interviewing a patient. After calculating the sum of possible energy expenses, the functional class of the patient is determined according to the summary criteria of the specific activity scale (Table 6).
In the tests, the patient groups were formed so that the people of the same functional class were equally distributed among different groups. Severe patients (of IV functional class; those having oncological diseases or suffered myocardial infarction/stroke to the brain 60 days or less before) were not admitted to the tests. The distribution of patients among groups was governed by a random number generator. The tests were carried out by the following protocol. Each patient took 100 mg of the preparation twice per day (in the morning and after lunch) during 3 months—against the background of a standard therapy administered by a physician. […] All the samples and placebo were encoded before sending into the clinic, so none of those involved into the tests (patients, physicians, medical personnel and the manager of tests) was aware of the nature of samples.
The functional class of patients was determined several times: at the beginning of tests (before the formation of test groups) and after 30, 60 and 90 days of treatment with the test samples. The estimation was performed on the basis of the activity scale (Table 7).

white rat females = settings: female, in vivo, 5000 mg/kg; for Total died: 14 days
[3] = system: erythroid cells isolated from the bone marrow of gamma-irradiated laboratory mice males; experiment: Radioprotective properties (micronucleus test after gamma irradiation); settings: mice irradiated with gamma rays 1.3 Gy, then fed 48 h succinic acid 20 mg/kg body wt.; critical value 16±2

Structure (SMILES) | Number of micronuclei per 2000 cells (genotoxicity) [1] | patients of functional class I, day 30 [2] | patients of functional class II, day 30 [2] | patients of functional class III, day 30 [2] | patients of functional class IV, day 30 [2] | patients of functional class I, day 60 [2] | patients of functional class II, day 60 [2] | patients of functional class III, day 60 [2] | patients of functional class IV, day 60 [2] | patients of functional class I, day 90 [2] | patients of functional class II, day 90 [2] | patients of functional class III, day 90 [2] | patients of functional class IV, day 90 [2] | patients of functional class I, day 0 [2] | patients of functional class II, day 0 [2] | patients of functional class III, day 0 [2] | patients of functional class IV, day 0 [2] | died, 13 day (white rat females) | died, 14 day (white rat females) | Total died (white rat females) | other results
O=C(O)CCC(=O)O [Example 7, succinic acid] | 5.0 ± 1.0 | 9 | 6 | 5 | 0 | 13 | 5 | 2 | 0 | 15 | 4 | 1 | 0 | 8 | 7 | 5 | 0 | 2 | 2 | 4 | Eosinophils, 6 h after (Wistar rat males; listed as Ex. 7): 1.5 ± 4%; Lymphocytes, 6 h after (Wistar rat males; listed as Ex. 7): 73 ± 6%; Number of leukocytes in 1 μl of blood, 6 h after (Wistar rat males; listed as Ex. 7): 7200; Segmentated cells, 6 h after (Wistar rat males; listed as Ex. 7): 26 ± 3%; Eosinophils, before (Wistar rat males; listed as Ex. 7): 2 ± 1%; Lymphocytes, before (Wistar rat males; listed as Ex. 7): 75 ± 7%; Number of leukocytes in 1 μl of blood, before (Wistar rat males; listed as Ex. 7): 6000; Segmentated cells, before (Wistar rat males; listed as Ex. 7): 23 ± 3%; Number of micronuclei per 2000 cells (radioprotective properties) [3]: 11.5 ± 1.8
O=C(O)CCC(=O)O [Example 8, succinic acid] | 5.0 ± 0.8 | 10 | 6 | 4 | 0 | 11 | 6 | 3 | 0 | 14 | 5 | 1 | 0 | 8 | 7 | 5 | 0 | 1 | 1 | 3 | Eosinophils, 6 h after (Wistar rat males; listed as Ex. 8): 1.5 ± 3%; Lymphocytes, 6 h after (Wistar rat males; listed as Ex. 8): 75 ± 4%; Number of leukocytes in 1 μl of blood, 6 h after (Wistar rat males; listed as Ex. 8): 7000; Segmentated cells, 6 h after (Wistar rat males; listed as Ex. 8): 24 ± 2%; Eosinophils, before (Wistar rat males; listed as Ex. 8): 2 ± 6%; Lymphocytes, before (Wistar rat males; listed as Ex. 8): 77 ± 5%; Number of leukocytes in 1 μl of blood, before (Wistar rat males; listed as Ex. 8): 5900; Segmentated cells, before (Wistar rat males; listed as Ex. 8): 21 ± 4%; died, 12 day (white rat females; 12 day): 1; Number of micronuclei per 2000 cells (radioprotective properties) [3]: 12.0 ± 1.5
